From patent publication US20220177428A1, “SPECIFICALLY SUBSTITUTED 3-(2-ALKOXY-6-ALKYL-4-PROPINYLPHENYL)-3-PYRROLIN-2-ONES AND THEIR USE AS HERBICIDES” (Bayer Aktiengesellschaft, priority 2019, published 2022)

Experiments:
Type in all cases: in vivo
Avena fatua [1] = test: Pre-emergence herbicidal effect; conditions: visual score after 3 weeks
From the text: (§1) Seeds of monocotyledonous and dicotyledonous weed plants and crop plants are laid out in sandy loam soil in wood-fibre pots and covered with soil. The compounds of the invention, formulated in the form of wettable powders (WP) or as emulsion concentrates (EC), are then applied to the surface of the covering soil as aqueous suspension or emulsion at a water application rate equating to 600 to 800 L/ha with addition of 0.2% wetting agent. After the treatment, the pots are placed in a greenhouse and kept under good growth conditions for the trial plants. The damage to the test plants is scored visually after a test period of 3 weeks by comparison with untreated controls (herbicidal activity in percent (%): 100% activity=the plants have died, 0% activity=like control plants). [table]

Amaranthus retroflexus = test: Pre-emergence herbicidal effect; conditions: 320 g ai/ha, visual score after 3 weeks
From the text: as §1

Viola tricolor = test: Pre-emergence herbicidal effect; conditions: visual score after 3 weeks
From the text: as §1

Lolium rigidum [2] = test: Pre-emergence herbicidal effect; conditions: visual score after 3 weeks
From the text: as §1

Echinochloa crus-galli [3] = test: Pre-emergence herbicidal effect; conditions: visual score after 3 weeks
From the text: as §1

Setaria viridis [4] = test: Pre-emergence herbicidal effect; conditions: visual score after 3 weeks
From the text: as §1

Veronica persica = test: Pre-emergence herbicidal effect; conditions: 320 g ai/ha, visual score after 3 weeks
From the text: as §1

Matricaria inodora = test: Pre-emergence herbicidal effect; conditions: 320 g ai/ha, visual score after 3 weeks
From the text: as §1

Abutylon threophrasti = test: Pre-emergence herbicidal effect; conditions: 320 g ai/ha, visual score after 3 weeks
From the text: as §1

Alopecurus myosuroides [5] = test: Pre-emergence herbicidal effect; conditions: visual score after 3 weeks
From the text: as §1

Digitaria sanguinalis [6] = test: Pre-emergence herbicidal effect; conditions: visual score after 3 weeks
From the text: as §1

Avena fatua [7] = test: Post-emergence herbicidal effect; conditions: 80 g ai/ha, visual score after about 3 weeks
Experimental: (§2) [table] Seeds of monocotyledonous and dicotyledonous weed and crop plants are laid out in sandy loam soil in wood-fibre pots, covered with soil and cultivated in a greenhouse under good growth conditions. 2 to 3 weeks after sowing, the test plants are treated at the one-leaf stage. The compounds of the invention, formulated in the form of wettable powders (WP) or as emulsion concentrates (EC), are then sprayed onto the green parts of the plants as aqueous suspension or emulsion at a water application rate equating to 600 to 800 L/ha with addition of 0.2% wetting agent. After the test plants have been left to stand in the greenhouse under optimal growth conditions for about 3 weeks, the action of the preparations is assessed visually in comparison to untreated controls (herbicidal action in percent (%): 100% activity=the plants have died, 0% activity=like control plants).

Lolium rigidum [8] = test: Post-emergence herbicidal effect; conditions: 80 g ai/ha, visual score after about 3 weeks
Experimental: as §2

Echinochloa crus-galli [9] = test: Post-emergence herbicidal effect; conditions: 80 g ai/ha, visual score after about 3 weeks
Experimental: as §2

Setaria viridis [10] = test: Post-emergence herbicidal effect; conditions: 80 g ai/ha, visual score after about 3 weeks
Experimental: as §2

Alopecurus myosuroides [11] = test: Post-emergence herbicidal effect; conditions: 80 g ai/ha, visual score after about 3 weeks
Experimental: as §2

Digitaria sanguinalis [12] = test: Post-emergence herbicidal effect; conditions: 80 g ai/ha, visual score after about 3 weeks
Experimental: as §2

Hordeum murinum = test: Post-emergence herbicidal effect; conditions: 80 g ai/ha, visual score after about 3 weeks
Experimental: as §2

Row | Structure (SMILES) | Pre-emergence activity VIOTR (Viola tricolor; 80 g ai/ha) | Pre-emergence activity LOLRI (Lolium rigidum [2]; 80 g ai/ha) | Pre-emergence activity ECHCG (Echinochloa crus-galli [3]; 80 g ai/ha) | Pre-emergence activity SETVI (Setaria viridis [4]; 80 g ai/ha) | Pre-emergence activity ALOMY (Alopecurus myosuroides [5]; 80 g ai/ha) | Pre-emergence activity DIGSA (Digitaria sanguinalis [6]; 80 g ai/ha) | Post-emergence activity AVEFA (Avena fatua [7]) | Post-emergence activity LOLRI (Lolium rigidum [8]) | Post-emergence activity ECHCG (Echinochloa crus-galli [9]) | Post-emergence activity SETVI (Setaria viridis [10]) | Post-emergence activity ALOMY (Alopecurus myosuroides [11]) | Post-emergence activity DIGSA (Digitaria sanguinalis [12]) | Post-emergence activity HORMU (Hordeum murinum) | Pre-emergence activity AVEFA (Avena fatua [1]; 80 g ai/ha) | other results
1 | CC#Cc1cc(C)c(C2=C(O)C3(CCC(OCCC)CC3)NC2=O)c(OC)c1 (centres unmarked) [Example D2] | 100% | 90% | 80% | 100% | 80% | 100% | 100% | 100% | 100% | 100% | 100% | 100% | – | – | Pre-emergence activity AVEFA (Avena fatua [1]; 320 g ai/ha): 100%; Pre-emergence activity AMARE (Amaranthus retroflexus): 100%; Pre-emergence activity VIOTR (Viola tricolor; 320 g ai/ha): 100%; Pre-emergence activity LOLRI (Lolium rigidum [2]; 320 g ai/ha): 100%; Pre-emergence activity ECHCG (Echinochloa crus-galli [3]; 320 g ai/ha): 100%; Pre-emergence activity SETVI (Setaria viridis [4]; 320 g ai/ha): 100%; Pre-emergence activity VERPE (Veronica persica): 80%; Pre-emergence activity MATIN (Matricaria inodora): 100%; Pre-emergence activity ABUTH (Abutylon threophrasti): 100%; Pre-emergence activity ALOMY (Alopecurus myosuroides [5]; 320 g ai/ha): 100%; Pre-emergence activity DIGSA (Digitaria sanguinalis [6]; 320 g ai/ha): 100%
2 | C=CCOC1CCC2(CC1)NC(=O)C(c1c(C)cc(C#CC)cc1OC)=C2OC(=O)OC (centres unmarked) [Example Q3] | – | – | – | – | – | – | 80% | 100% | 100% | 100% | 100% | 90% | 100% | – | –
3 | C=CCOC1CCC2(CC1)NC(=O)C(c1c(C)cc(C#CC)cc1OC)=C2O (centres unmarked) [Example D5] | – | – | – | – | – | – | 100% | 100% | 100% | 100% | 100% | 100% | 100% | – | –
4 | CC#Cc1cc(C)c(C2=C(OC(=O)CC)C3(CCCC(OCCC)C3)NC2=O)c(OC)c1 (centres unmarked) [Example P5] | – | – | – | – | – | – | 100% | 100% | 100% | 100% | 100% | 100% | 100% | – | –
5 | C=CCOC1CCC2(CC1)NC(=O)C(c1c(C)cc(C#CC)cc1OC)=C2OC(=O)C(C)C (centres unmarked) [Example Q5] | – | – | – | – | – | – | – | 100% | 100% | 100% | 100% | 100% | 90% | – | –
6 | C=CCOC1CCC2(CC1)NC(=O)C(c1c(C)cc(C#CC)cc1OC)=C2OC(=O)OCC (centres unmarked) [Example Q4] | 100% | 100% | 100% | 100% | 100% | 100% | 90% | 100% | 100% | 100% | 100% | 100% | 100% | 90% | –
7 | CC#Cc1cc(C)c(C2=C(OC(=O)OCC)C3(CCC(COC)CC3)NC2=O)c(OC)c1 (centres unmarked) [Example Q8] | 100% | 100% | 100% | 100% | 100% | 100% | 100% | 100% | 100% | 100% | 100% | 100% | – | 80% | Pre-emergence activity AVEFA (Avena fatua [1]; 320 g ai/ha): 100%; Pre-emergence activity AMARE (Amaranthus retroflexus): 100%; Pre-emergence activity VIOTR (Viola tricolor; 320 g ai/ha): 100%; Pre-emergence activity LOLRI (Lolium rigidum [2]; 320 g ai/ha): 100%; Pre-emergence activity ECHCG (Echinochloa crus-galli [3]; 320 g ai/ha): 100%; Pre-emergence activity SETVI (Setaria viridis [4]; 320 g ai/ha): 100%; Pre-emergence activity VERPE (Veronica persica): 100%; Pre-emergence activity MATIN (Matricaria inodora): 100%; Pre-emergence activity ABUTH (Abutylon threophrasti): 100%; Pre-emergence activity ALOMY (Alopecurus myosuroides [5]; 320 g ai/ha): 100%; Pre-emergence activity DIGSA (Digitaria sanguinalis [6]; 320 g ai/ha): 100%
8 | CC#Cc1cc(C)c(C2=C(O)C3(CCCC(OCCC)C3)NC2=O)c(OC)c1 (centres unmarked) [Example D1, 4-Hydroxy-3-[2-methoxy-6-methyl-4-(prop-1-yn-1-yl)phenyl]-7-propoxy-1-azaspiro[4.5]dec-3-en-2-one] | – | – | – | – | – | – | 100% | 100% | 100% | 100% | 100% | 100% | 100% | – | –
9 | CC#Cc1cc(C)c(C2=C(OC(=O)OCC)C3(CCCC(OCCC)C3)NC2=O)c(OC)c1 (centres unmarked) [Example P3] | – | – | – | – | – | – | 100% | 100% | 100% | 100% | 100% | 100% | 100% | – | –
10 | CC#Cc1cc(C)c(C2=C(OC(=O)C(C)C)C3(CCCC(OCCC)C3)NC2=O)c(OC)c1 (centres unmarked) [Example P4] | – | – | – | – | – | – | 100% | 100% | 100% | 100% | 100% | 90% | 100% | – | –
11 | CC#Cc1cc(C)c(C2=C(O)C3(CCC(COC)CC3)NC2=O)c(OC)c1 (centres unmarked) [Example D6] | – | 100% | – | 100% | 80% | 100% | 100% | 100% | 100% | 100% | 100% | 100% | – | 80% | Pre-emergence activity AVEFA (Avena fatua [1]; 320 g ai/ha): 100%; Pre-emergence activity AMARE (Amaranthus retroflexus): 100%; Pre-emergence activity VIOTR (Viola tricolor; 320 g ai/ha): 100%; Pre-emergence activity LOLRI (Lolium rigidum [2]; 320 g ai/ha): 100%; Pre-emergence activity ECHCG (Echinochloa crus-galli [3]; 320 g ai/ha): 100%; Pre-emergence activity SETVI (Setaria viridis [4]; 320 g ai/ha): 100%; Pre-emergence activity VERPE (Veronica persica): 100%; Pre-emergence activity MATIN (Matricaria inodora): 90%; Pre-emergence activity ABUTH (Abutylon threophrasti): 100%; Pre-emergence activity ALOMY (Alopecurus myosuroides [5]; 320 g ai/ha): 100%; Pre-emergence activity DIGSA (Digitaria sanguinalis [6]; 320 g ai/ha): 100%
12 | CC#Cc1cc(C)c(C2=C(O)C3(CCC(OC(C)C)CC3)NC2=O)c(OC)c1 (centres unmarked) [Example D3] | 100% | 100% | 100% | 100% | 100% | 100% | 100% | 100% | 100% | 100% | 100% | 100% | 80% | 80% | –
13 | CC#Cc1cc(C)c(C2=C(OC(=O)OC)C3(CCCC(OCCC)C3)NC2=O)c(OC)c1 (centres unmarked) [Example P2] | – | – | – | – | – | – | 100% | 100% | 100% | 100% | 100% | 100% | 100% | – | –
